ChEMBL document CHEMBL1909046, “DrugMatrix in vitro pharmacology data”

Experiments:
[1] = molecular target: Cytochrome P450 2E1 (Homo sapiens, UniProt P05181); conditions: bti-tn-5b1-4; note: in other assays of this panel Not Active means under 50% inhibition at 10 µM
[2] = molecular target: T1, Interstitial collagenase (Homo sapiens, UniProt P03956); experiment: biochemical; assay type: tissue-based, Rheumatoid synovial fibroblasts;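 note: MMP-1 enzyme inhibition assay using a peptide substrate; in other assays of this panel Not Active means under 50% inhibition at 10 µM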
T1 sequence (P03956 whole entry): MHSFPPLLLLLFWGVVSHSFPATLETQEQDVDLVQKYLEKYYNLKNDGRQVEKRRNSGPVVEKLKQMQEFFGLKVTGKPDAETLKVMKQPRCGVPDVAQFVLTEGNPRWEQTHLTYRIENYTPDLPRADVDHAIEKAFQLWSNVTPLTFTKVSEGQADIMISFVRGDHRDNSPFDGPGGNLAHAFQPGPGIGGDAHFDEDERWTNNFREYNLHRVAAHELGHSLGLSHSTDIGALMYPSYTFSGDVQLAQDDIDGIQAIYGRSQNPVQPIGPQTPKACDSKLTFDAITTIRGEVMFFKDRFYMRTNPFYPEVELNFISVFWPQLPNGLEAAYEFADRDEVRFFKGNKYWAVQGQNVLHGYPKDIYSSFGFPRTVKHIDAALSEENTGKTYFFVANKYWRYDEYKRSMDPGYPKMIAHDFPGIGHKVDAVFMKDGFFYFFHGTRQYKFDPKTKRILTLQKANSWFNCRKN

[3] = molecular target: Tyrosine-protein kinase Fyn (Homo sapiens, UniProt P06241); experiment: biochemical; assay type: cell-based, Insect cells; conditions: insect cells;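 note: enzymatic inhibition of Fyn kinase activity measured with Poly(Glu:Tyr) as the phosphorylation substrate; in other assays of this panel Not Active means under 50% inhibition at 10 µM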
Chain of Tyrosine-protein kinase Fyn (P06241 whole entry): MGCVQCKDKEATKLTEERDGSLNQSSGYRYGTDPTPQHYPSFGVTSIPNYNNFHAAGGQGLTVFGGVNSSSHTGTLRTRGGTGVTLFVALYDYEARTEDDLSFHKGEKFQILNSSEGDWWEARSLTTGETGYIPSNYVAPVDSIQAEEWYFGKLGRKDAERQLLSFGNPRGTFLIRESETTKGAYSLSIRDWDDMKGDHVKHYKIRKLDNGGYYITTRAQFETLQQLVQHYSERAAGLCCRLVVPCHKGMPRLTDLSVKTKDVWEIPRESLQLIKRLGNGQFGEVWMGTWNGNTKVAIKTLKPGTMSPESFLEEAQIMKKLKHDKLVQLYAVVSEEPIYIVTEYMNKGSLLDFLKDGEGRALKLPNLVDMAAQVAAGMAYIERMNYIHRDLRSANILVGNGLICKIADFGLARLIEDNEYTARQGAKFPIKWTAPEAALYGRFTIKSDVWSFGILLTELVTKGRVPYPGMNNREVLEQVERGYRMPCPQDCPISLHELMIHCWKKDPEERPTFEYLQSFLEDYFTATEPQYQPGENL

[4] = molecular target: T2, Leukotriene C4 synthase (Cavia porcellus, UniProt A6XA80); experiment: biochemical; assay type: tissue-based, Lung;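 note: enzyme inhibition assay of leukotriene C4 synthase, using LTA4 as the substrate; in other assays of this panel Not Active means under 50% inhibition at 10 µM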
T2 sequence (A6XA80 whole entry): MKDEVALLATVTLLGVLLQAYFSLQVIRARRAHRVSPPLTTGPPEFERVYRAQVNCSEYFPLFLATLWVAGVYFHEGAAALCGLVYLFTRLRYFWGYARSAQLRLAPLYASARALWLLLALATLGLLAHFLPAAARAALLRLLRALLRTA

[5] = molecular target: Tyrosine-protein kinase Lck (Homo sapiens, UniProt P06239); experiment: DRUGMATRIX: Protein Tyrosine Kinase, LCK enzyme inhibition (substrate: Poly(Glu:Tyr)); assay type: cell-based, Insect cells; conditions: insect cells; Not Active = under 50% inhibition at 10 µM
Chain of Tyrosine-protein kinase Lck (P06239 whole entry): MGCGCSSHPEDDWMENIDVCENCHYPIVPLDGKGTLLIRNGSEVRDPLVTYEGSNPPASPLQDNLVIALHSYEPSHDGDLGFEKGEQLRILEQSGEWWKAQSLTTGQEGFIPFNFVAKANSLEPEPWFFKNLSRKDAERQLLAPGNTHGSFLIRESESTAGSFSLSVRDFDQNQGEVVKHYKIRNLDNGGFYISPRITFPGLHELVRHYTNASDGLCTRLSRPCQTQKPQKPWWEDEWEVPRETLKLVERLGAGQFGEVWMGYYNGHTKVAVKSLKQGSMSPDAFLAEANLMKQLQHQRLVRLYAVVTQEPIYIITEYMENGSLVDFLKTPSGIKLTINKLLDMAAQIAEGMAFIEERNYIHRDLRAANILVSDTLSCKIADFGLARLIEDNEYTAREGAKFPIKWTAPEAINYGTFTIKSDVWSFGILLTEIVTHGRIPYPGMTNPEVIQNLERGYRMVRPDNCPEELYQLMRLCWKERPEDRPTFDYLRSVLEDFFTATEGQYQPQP

[6] = DRUGMATRIX: Purinergic P2X radioligand binding (ligand: [3H] alpha, beta-Methylene-ATP); assay type: cell membranes, Oryctolagus cuniculus, New Zealand albino, Urinary bladder, Membrane; conditions: Not Active = under 50% inhibition at 10 µM
[7] = DRUGMATRIX: Sodium/nucleoside co-transporter radioligand binding (ligand: nitrobenzylthioinosine); assay type: cell membranes, Cavia porcellus, Dunkin-Hartley, Cerebral cortex, Membrane; conditions: Not Active = under 50% inhibition at 10 µM
[8] = molecular target: T3, Nitric oxide synthase, inducible (Mus musculus, UniProt P29477); parameters: species or system Escherichia coli
T3 sequence (P29477 whole entry): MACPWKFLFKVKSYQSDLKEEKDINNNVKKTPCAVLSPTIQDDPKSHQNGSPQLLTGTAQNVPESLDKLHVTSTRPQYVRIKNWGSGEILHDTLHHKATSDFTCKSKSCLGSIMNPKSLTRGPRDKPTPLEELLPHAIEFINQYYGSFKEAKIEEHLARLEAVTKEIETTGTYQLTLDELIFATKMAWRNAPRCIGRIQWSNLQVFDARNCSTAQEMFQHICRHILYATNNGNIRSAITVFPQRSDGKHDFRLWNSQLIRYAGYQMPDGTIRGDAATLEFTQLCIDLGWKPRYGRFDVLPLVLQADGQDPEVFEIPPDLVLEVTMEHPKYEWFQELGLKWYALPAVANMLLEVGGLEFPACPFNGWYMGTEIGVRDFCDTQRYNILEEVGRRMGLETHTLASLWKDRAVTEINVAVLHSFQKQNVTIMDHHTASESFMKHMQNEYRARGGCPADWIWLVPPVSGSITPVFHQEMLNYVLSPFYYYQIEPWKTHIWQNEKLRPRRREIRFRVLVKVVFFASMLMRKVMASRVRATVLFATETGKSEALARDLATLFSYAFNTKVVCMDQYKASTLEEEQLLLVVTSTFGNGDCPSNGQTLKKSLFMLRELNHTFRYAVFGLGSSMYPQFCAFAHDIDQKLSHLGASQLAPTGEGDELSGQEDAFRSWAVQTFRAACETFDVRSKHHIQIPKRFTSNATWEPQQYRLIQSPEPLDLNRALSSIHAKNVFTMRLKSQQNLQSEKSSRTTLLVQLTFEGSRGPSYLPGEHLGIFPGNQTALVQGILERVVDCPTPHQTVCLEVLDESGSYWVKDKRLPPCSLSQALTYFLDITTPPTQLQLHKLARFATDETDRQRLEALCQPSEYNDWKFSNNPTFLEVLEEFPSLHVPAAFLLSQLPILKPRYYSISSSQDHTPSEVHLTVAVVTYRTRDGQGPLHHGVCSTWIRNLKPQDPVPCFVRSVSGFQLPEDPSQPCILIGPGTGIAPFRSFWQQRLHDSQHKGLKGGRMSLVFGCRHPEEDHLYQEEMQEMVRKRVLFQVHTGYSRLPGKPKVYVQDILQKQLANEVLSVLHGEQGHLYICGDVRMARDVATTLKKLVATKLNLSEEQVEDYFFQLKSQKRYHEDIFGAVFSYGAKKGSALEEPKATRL

[9] = molecular target: T4, Adenosine receptor A1 (Homo sapiens, UniProt P30542); assay type: cell membranes, CHO, Membrane; conditions: cho
T4 sequence (P30542 whole entry): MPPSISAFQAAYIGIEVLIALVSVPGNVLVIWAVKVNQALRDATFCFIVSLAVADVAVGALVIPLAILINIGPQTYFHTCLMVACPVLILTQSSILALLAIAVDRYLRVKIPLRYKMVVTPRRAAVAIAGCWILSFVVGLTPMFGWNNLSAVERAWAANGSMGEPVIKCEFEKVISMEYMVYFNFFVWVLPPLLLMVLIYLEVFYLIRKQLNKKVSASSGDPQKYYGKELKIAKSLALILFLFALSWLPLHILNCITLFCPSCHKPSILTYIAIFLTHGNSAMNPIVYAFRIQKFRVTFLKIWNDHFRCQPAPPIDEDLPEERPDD

Chain of Cytochrome P450 2E1 (P05181 whole entry): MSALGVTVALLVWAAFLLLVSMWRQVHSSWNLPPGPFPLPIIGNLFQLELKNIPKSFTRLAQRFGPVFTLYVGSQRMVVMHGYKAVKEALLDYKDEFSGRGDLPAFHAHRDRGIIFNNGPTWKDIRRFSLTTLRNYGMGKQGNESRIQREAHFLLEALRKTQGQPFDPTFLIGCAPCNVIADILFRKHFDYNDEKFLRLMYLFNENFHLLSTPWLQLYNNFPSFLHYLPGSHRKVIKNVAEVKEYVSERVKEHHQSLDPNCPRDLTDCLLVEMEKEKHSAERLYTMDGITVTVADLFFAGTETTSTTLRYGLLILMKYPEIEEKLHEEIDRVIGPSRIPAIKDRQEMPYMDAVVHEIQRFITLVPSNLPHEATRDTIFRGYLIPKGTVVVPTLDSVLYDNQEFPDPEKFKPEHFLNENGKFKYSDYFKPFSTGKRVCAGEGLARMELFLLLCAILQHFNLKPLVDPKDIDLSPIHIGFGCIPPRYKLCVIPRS

CO[C@H]1O[C@@H]2O[C@@]3(C)CC[C@H]4[C@H](C)CC[C@@H]([C@H]1C)[C@@]24OO3
Not Active: IC50 [1] | Ki [1] | IC50 [2] | IC50 [3] | IC50 [4] | IC50 [5] | IC50 [6] | Ki [6] | IC50 [7] | Ki [7] | IC50 [8] | IC50 [9]

O=c1[nH]c2ccccc2c2ccccc12
Not Active: IC50 [1] | Ki [1] | IC50 [2] | IC50 [3] | IC50 [4] | IC50 [5] | IC50 [6] | Ki [6] | IC50 [7] | Ki [7] | IC50 [8] | IC50 [9]

COc1ccc(C[C@H](N)C(=O)N[C@H]2[C@@H](O)[C@H](n3cnc4c(N(C)C)ncnc43)O[C@@H]2CO)cc1 [PUROMYCIN]
Not Active: IC50 [1] | Ki [1] | IC50 [2] | IC50 [3] | IC50 [4] | IC50 [5] | IC50 [6] | Ki [6] | IC50 [7] | Ki [7] | IC50 [8] | IC50 [9]

CHROMIC CHLORIDE
Not Active: IC50 [1] | Ki [1] | IC50 [2] | Ki [2] | IC50 [4] | Ki [4] | IC50 [5] | Ki [5] | IC50 [6] | Ki [6] | IC50 [7] | Ki [7] | IC50 [8] | Ki [8] | IC50 [9] | Ki [9]

C[C@@H]1[C@H](O)[C@@H](C)/C=C/C=C/C=C/C=C/C=C/C=C/C=C/[C@H](O[C@@H]2O[C@H](C)[C@@H](O)[C@H](N)[C@@H]2O)C[C@@H]2O[C@](O)(C[C@@H](O)C[C@@H](O)[C@H](O)CC[C@@H](O)C[C@@H](O)CC(=O)O[C@H]1C)C[C@H](O)[C@H]2C(=O)O [AMPHOTERICIN B]
Not Active: IC50 [1] | Ki [1] | IC50 [2] | IC50 [3] | IC50 [4] | IC50 [5] | IC50 [6] | Ki [6] | IC50 [7] | Ki [7] | IC50 [8] | IC50 [9]

Cc1c(N)nc([C@H](CC(N)=O)NC[C@H](N)C(N)=O)nc1C(=O)N[C@H](C(=O)N[C@H](C)[C@@H](O)[C@H](C)C(=O)N[C@H](C(=O)NCCc1nc(-c2nc(C(=O)NCCC[S+](C)C)cs2)cs1)[C@@H](C)O)[C@@H](O[C@@H]1O[C@@H](CO)[C@@H](O)[C@H](O)[C@@H]1O[C@H]1O[C@H](CO)[C@@H](O)[C@H](OC(N)=O)[C@@H]1O)c1c[nH]cn1.[Br-] [BLEOMYCIN A2]
Not Active: IC50 [1] | Ki [1] | IC50 [2] | IC50 [3] | IC50 [4] | IC50 [5] | IC50 [6] | Ki [6] | IC50 [7] | Ki [7] | IC50 [8] | IC50 [9]

O=C(O)CNCP(=O)(O)O [GLYPHOSATE]
Not Active: IC50 [2] | IC50 [3] | IC50 [4] | IC50 [5] | IC50 [6] | Ki [6] | IC50 [7] | Ki [7] | IC50 [8] | IC50 [9]

Nc1nc(F)nc2c1ncn2[C@@H]1O[C@H](CO)[C@@H](O)[C@@H]1O [FLUDARABINE]
Not Active: IC50 [1] | Ki [1] | IC50 [2] | IC50 [3] | IC50 [4] | IC50 [5] | IC50 [6] | Ki [6] | IC50 [7] | Ki [7] | IC50 [8] | IC50 [9]

NCC(CC(=O)O)c1ccc(Cl)cc1 (configuration not stated) [BACLOFEN]
Not Active: IC50 [1] | Ki [1] | IC50 [2] | IC50 [3] | IC50 [4] | IC50 [5] | IC50 [6] | Ki [6] | IC50 [7] | Ki [7] | IC50 [8] | IC50 [9]

O=C(Nc1ccc(Cl)c(Cl)c1)c1cc(Cl)cc(Cl)c1O [3,3',4',5-TETRACHLOROSALICYLANILIDE]
Not Active: IC50 [1] | Ki [1] | IC50 [2] | IC50 [3] | IC50 [4] | IC50 [5] | IC50 [6] | Ki [6] | IC50 [7] | Ki [7] | IC50 [8] | IC50 [9]

Oc1ccccc1 [PHENOL]
Not Active: IC50 [1] | Ki [1] | IC50 [2] | IC50 [3] | IC50 [4] | IC50 [5] | IC50 [6] | Ki [6] | IC50 [7] | Ki [7] | IC50 [8] | IC50 [9]

CC(C)NCC(O)COc1ccc(CC(N)=O)cc1 (configuration not stated) [ATENOLOL]
Not Active: IC50 [1] | Ki [1] | IC50 [2] | IC50 [3] | IC50 [4] | IC50 [5] | IC50 [6] | Ki [6] | IC50 [7] | Ki [7] | IC50 [8] | IC50 [9]

CNC[C@H](O)c1ccc(O)c(O)c1 [EPINEPHRINE]
Not Active: IC50 [1] | Ki [1] | IC50 [2] | IC50 [3] | IC50 [4] | IC50 [5] | IC50 [6] | Ki [6] | IC50 [7] | Ki [7] | IC50 [8] | IC50 [9]

CN(Cc1cc(Br)cc(Br)c1N)C1CCCCC1 [BROMHEXINE]
Not Active: IC50 [1] | Ki [1] | IC50 [2] | IC50 [3] | IC50 [4] | IC50 [5] | IC50 [6] | Ki [6] | IC50 [7] | Ki [7] | IC50 [8] | IC50 [9]

CC(C)Cc1ccc([C@H](C)C(=O)O)cc1 [DEXIBUPROFEN]
Not Active: IC50 [1] | Ki [1] | IC50 [2] | IC50 [3] | IC50 [4] | IC50 [5] | IC50 [6] | Ki [6] | IC50 [7] | Ki [7] | IC50 [8] | IC50 [9]
